From PubChem BioAssay AID1259411 (Chemical Carcinogenesis Research Information System (CCRIS), 2018)
Calls of active or inactive are those of the source. The rule behind the calls is not given here.

Tested on: rodent carcinogenicity bioassays, tumor incidence
Assay: CCRIS carcinogenicity studies
Conditions: Dose: 0, Dose: 0
Summary of the method: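 Archive of carcinogenicity, mutagenicity, tumor promotion and tumor inhibition results drawn from journals, NCI reports and other sources, expert-reviewed; covers 1985-2011 and is no longer updated.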

COP(=S)(OC)Oc1ccc([N+](=O)[O-])cc1
carcinogen call (Species: MOUSE, Strain/Sex: B6C3F1/FEMALE, Route: ORAL, 62.5, 125 PPM IN DIET, 62.5, 125 PPM IN DIET): inactive; negative | carcinogen call (Species: MOUSE, Strain/Sex: B6C3F1/MALE, Route: ORAL, 35, 77 PPM IN DIET, TWA, 35, 77 PPM IN DIET, TWA): inactive; negative | carcinogen call (Species: RAT, Strain/Sex: F344/FEMALE, Route: ORAL, 20, 40 PPM IN DIET, 20, 40 PPM IN DIET): inactive; negative | carcinogen call (Species: RAT, Strain/Sex: F344/MALE, Route: ORAL, 20, 40 PPM IN DIET, 20, 40 PPM IN DIET): inactive; negative

C=C(C)C(N)=O
carcinogen call (Species: MOUSE, Strain/Sex: DDY, Route: INTRAPERITONEAL, 2.35 MMOL/KG 1/2 D FOR 5 DOSES (STUDY DURATION: 6 MO), Tumor Site: Type of Lesion: LUNG: ADENOMA): active; positive | carcinogen call (Species: MOUSE, Strain/Sex: DDY, Route: INTRAPERITONEAL, 2.35 MMOL/KG 1/D FOR 5 D (STUDY DURATION: 6 MO), Tumor Site: Type of Lesion: LUNG: ADENOMA): active; positive

c1ccc(Nc2ccc(Nc3ccccc3)cc2)cc1
carcinogen call (Species: RAT, Strain/Sex: F344/FEMALE, Route: ORAL, 0.5, 2% IN DIET FOR 104 WK (STUDY DURATION: 112 WK), 0.5, 2% IN DIET FOR 104 WK (STUDY DURATION: 112 WK)): inactive; negative | carcinogen call (Species: RAT, Strain/Sex: F344/MALE, Route: ORAL, 0.5, 2% IN DIET FOR 104 WK (STUDY DURATION: 112 WK), 0.5, 2% IN DIET FOR 104 WK (STUDY DURATION: 112 WK)): inactive; negative

OC1c2cccc3c4ccccc4c4c5ccccc5cc(c4c23)C1O (centres undefined)
carcinogen call (Species: MOUSE, Strain/Sex: SWISS/FEMALE, Route: DERMAL, 1, 4 NMOL IN 100 µL ACETONE 2/WK FOR 40 WK (STUDY DURATION: 48 WK), 1, 4 NMOL IN 100 µL ACETONE 2/WK FOR 40 WK (STUDY DURATION: 48 WK)): inactive; negative
